In US11242539B2, “Elite event EE-GM4 and methods and kits for identifying such event in biological samples” (priority 2016, dated 2022):

Test system: soybean plants containing event EE-GM4
Assay: HPPD inhibitor herbicide tolerance field trials (maximum phytotoxicity)
Type: in vivo, Glycine max
Conditions: for average maximum phytotoxicity value: several field trials across 2 years; for tolerance of plants with EE-GM4 to herbicide: field
Description: Numbers in ( ) below a treatment give the number of trials included in the bar, the number on top of each bar gives the average maximum phytotoxicity value for that treatment. Treatments applied were: IFT=isoxaflutole, MST=mesotrione, PE=pre-emergence, PO=post-emergence (at V2-V3 stage, with adjuvants crop oil concentrate and ammonium sulfate added to increase herbicide activity). Rates shown are in gram active ingredient/hectare (4× dose in pre-emergence, 2× dose in post-emergence).
Tolerance of plants comprising EE-GM4 to HPPD inhibitor herbicides was tested at different locations in the field over 2 years. […] All post-emergence treatments were at the V2-V3 stage, with adjuvants crop oil concentrate and ammonium sulfate added to increase herbicide activity.
The “maximum phytotoxicity” as used herein is the highest phytotoxicity rating recorded at any observation during the duration of a trial (with 3 to 4 observations per trial). In existing weed control applications, a normal (lx) dose for isoxaflutole (IFT) in pre- or post-emergence application and for MST in post-emergence application is 105 gr/ha, and a normal (1×) dose for mesotrione in pre-emergence application is 210 gr/ha.
Also, in several field trials across 2 years, soybean plants with event EE-GM4 had good tolerance towards experimental HPPD inhibitor compound 2-methyl-N-(5-methyl-1,3,4-oxadiazol-2-yl)-3-(methylsulfonyl)-4-(trifluoromethyl)benzamide (U.S. Pat. No. 9,101,141) when applied pre-emergence at 400 gr ai/ha or post-emergence at 200 gr ai/ha, respectively (the average maximum phytotoxicity value for each treatment was below 20%). […] All post-emergence treatments were at the V2-V3 stage, with adjuvants crop oil concentrate and ammonium sulfate added to increase herbicide activity.

[1] = applied post-emergence at V2-V3 stage with crop oil concentrate and ammonium sulfate, over 2 years
[2] = applied pre-emergence, different locations over 2 years

Work on `CSc1c(C(F)(F)F)ccc(C(=O)Nc2nnnn2C)c1Cl` [2-chloro-3-(methylsulfanyl)-N-(1-methyl-1H-tetrazol-5-yl)-4-(trifluoromethyl)benzamide] yielded an average maximum phytotoxicity (post-emergence at 100-150 gr ai/ha, V2-V3 stage with adjuvants) of 30%.
For `Cc1nnc(NC(=O)c2ccc(C(F)(F)F)c(S(C)(=O)=O)c2C)o1` [2-methyl-N-(5-methyl-1,3,4-oxadiazol-2-yl)-3-(methylsulfonyl)-4-(trifluoromethyl)benzamide], the “average maximum phytotoxicity value” (post-emergence at 200 gr ai/ha, V2-V3 stage with adjuvants) was “below 20%” and the “average maximum phytotoxicity value” (pre-emergence at 400 gr ai/ha) was “below 20%”.
With `CS(=O)(=O)c1cc(C(F)(F)F)ccc1C(=O)c1cnoc1C1CC1` [isoxaflutole, (5-cyclopropyl-4-isoxazolyl)[2-(methylsulfonyl)-4-(trifluoromethyl)phenyl]methanone] the “tolerance of plants with EE-GM4 to herbicide” value (from here on “tolerance of plants”) [1] was “crop damage was a bit higher” and the “tolerance of plants” value [2] was “commercially relevant tolerance”.
For `CS(=O)(=O)c1ccc(C(=O)C2C(=O)CCCC2=O)c([N+](=O)[O-])c1` [mesotrione, 2-[4-(Methylsulfonyl)-2-nitrobenzoyl]cyclohexane-1,3-dione], the “tolerance of plants” value [1] was “commercially relevant tolerance” and the “tolerance of plants” value [2] was “commercially relevant tolerance”.
